# Assay results taken from patent US20060167109A1, “Methods of reducing rhinovirus contagion and related compositions” (priority 2002, published 2006).
# Legend:
# Experiment in all cases: HRV cytopathic effect assay
# Assay type in all cases: cell-based
# Details in all cases: Human rhinovirus sp.
# [1] = test system: HRV serotype 18
# Description: (§1) For sensitivity testing to pleconaril, the appropriate cells were seeded into 96 well plates at a concentration of 4×10^4/well. After an overnight incubation at 37° C., the medium was removed and the cells were infected with 150 μL of a dilution of virus previously titrated to give ≧85% lysis of the monolayer after 3 days of incubation. The plates were incubated for 1 hour at the appropriate temperature and then overlaid with 50 μL of medium containing serial 2-fold dilutions of pleconaril in 2% DMSO. The final DMSO concentration in the assay was always 0.5%. No virus and no pleconaril controls were included on each plate. All drug concentrations were run in quadruplicate. The plates were then incubated for 3 days at the appropriate temperature followed by processing as described above.
# [2] = test system: HRV serotype 1A
# Description: as §1
# [3] = test system: HRV serotype 1B
# Description: as §1
# [4] = test system: HRV serotype 23
# Description: as §1
# [5] = test system: HRV serotype 27
# Description: as §1
# [6] = test system: HRV serotype 33
# Description: as §1
# [7] = test system: HRV serotype 34
# Description: as §1
# [8] = test system: HRV serotype 45
# Description: as §1
# [9] = test system: HRV serotype 48
# Description: as §1
# [10] = test system: HRV serotype 55
# Description: as §1
# [11] = test system: HRV serotype 57
# Description: as §1
# [12] = test system: HRV serotype 61
# Description: as §1
# [13] = test system: HRV serotype 63
# Description: as §1
# [14] = test system: HRV serotype 67
# Description: as §1
# [15] = test system: HRV serotype 69
# Description: as §1
# [16] = test system: HRV serotype 6
# Description: as §1
# [17] = test system: HRV serotype 83
# Description: as §1
# [18] = test system: HRV serotype 85
# Description: as §1
# [19] = test system: HRV serotype 89
# Description: as §1
# [20] = test system: HRV serotype 90
# Description: as §1
compound,measurement,setting,value
"Cc1cc(CCCOc2c(C)cc(-c3noc(C(F)(F)F)n3)cc2C)on1 [pleconaril, 3-[3,5-dimethyl-4-[3-(3-methyl-5-isoxazolyl)propoxy]phenyl]-5-(trifluoromethyl)-1,2,4-oxadiazole]",IC50,[1],240 ± 100 nM
same,IC50,"[2]; HRV1A, Table 2, mean of at least two independent determinations",430 ± 170 nM
same,IC50,[2]; serotype 1A,430 ± 170 nM
same,IC50,[3],160 ± 30 nM
same,IC50,[4],320 ± 10 nM
same,IC50,[5],5900 ± 1900 nM
same,IC50,[6],160 ± 30 nM
same,IC50,[7],90 ± 20 nM
same,IC50,[8],4300 ± 1830 nM
same,IC50,[9],1800 ± 630 nM
same,IC50,[10],20 ± 20 nM
same,IC50,[11],170 ± 50 nM
same,IC50,[12],210 ± 80 nM
same,IC50,[13],160 ± 80 nM
same,IC50,[14],250 ± 110 nM
same,IC50,[15],6770 ± 3140 nM
same,IC50,[16],60 ± 20 nM
same,IC50,[17],20 ± 10 nM
same,IC50,[18],50 ± 20 nM
same,IC50,"[19]; HRV89, Table 2, mean of at least two independent determinations",50 ± 10 nM
same,IC50,[19]; serotype 89,50 ± 10 nM
same,IC50,[20],190 ± 60 nM
